biological target: T1, HDM2 (Homo sapiens, UniProt Q00987); assay: HDM2 FRET assay (inhibition of binding of FITC labeled p53-pocket peptide to HDM2); details: 0.5 nM HDM2 (residues 17 to 125), 3nM peptide, two hour incubation at room temperature; read-out: FRET IC50
T1 construct: Thioredoxin (N); made in house; host or cells: E. coli strain BL21(DE3)Rosetta
How it was run: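 Displacement of FITC-p53 peptide (3 nM) from His-tagged HDM2 (0.5 nM) is measured by Tb-to-fluorescein FRET in PBS, 0.01% BSA, 0.01% Tween-20. IC50 values derive from 10-point curves.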

T1 sequence (Q00987 17-125): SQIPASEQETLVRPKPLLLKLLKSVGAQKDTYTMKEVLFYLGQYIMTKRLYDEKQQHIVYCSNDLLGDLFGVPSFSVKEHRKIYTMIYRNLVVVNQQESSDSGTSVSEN

For CC(C)c1ccnc(-c2nc3nc(-c4nnn[nH]4)nc(N[C@H](C)C4CCC4)c3n2Cc2ccc(C(F)(F)F)cc2)c1 [Example 12.1, N-[(1R)-1-cyclobutylethyl]-8-[4-(propan-2-yl)pyridin-2-yl]-2-(1H-tetrazol-5-yl)-7-[4-(trifluoromethyl)benzyl]-7H-purin-6-amine], which IC50 is on record?
The IC50 was 8.35 nM.

How did the IC50 turn out when CC(C)c1ccnc(-c2nc3nc(CO)nc(N[C@H](C)C4CCC4)c3n2Cc2ccc(C(F)(F)F)cc2)c1 [Example 12.2, (6-{[(1R)-1-cyclobutylethyl]amino}-8-[4-(propan-2-yl)pyridin-2-yl]-7-[4-(trifluoromethyl)benzyl]-7H-purin-2-yl)methanol] was run?
Its IC50 is 597 nM.

How did the IC50 turn out when CC(C)c1ccnc(-c2nc3nc(-c4cnn[nH]4)nc(N[C@H](C)C4CCC4)c3n2Cc2ccc(C(F)(F)F)cc2)c1 [Example 12.3, N-[(1R)-1-cyclobutylethyl]-8-[4-(propan-2-yl)pyridin-2-yl]-2-(1H-1,2,3-triazol-5-yl)-7-[4-(trifluoromethyl)benzyl]-7H-purin-6-amine] was run?
The IC50 was 535 nM.

Which IC50 does the source give for CC(=O)c1nc(N[C@H](C)C2CCC2)c2c(n1)nc(-c1cc(C(C)C)ccn1)n2C[C@H]1CC[C@H](C)CC1 [Example 12.5, 1-(6-{[(1R)-1-cyclobutylethyl]amino}-7-[(trans-4-methylcyclohexyl)methyl]-8-[4-(propan-2-yl)pyridin-2-yl]-7H-purin-2-yl)ethanone] here?
Its IC50 is 471 nM.

Which IC50 does the source give for CC(C)c1ccnc(-c2nc3nc(C(C)O)nc(N[C@H](C)C4CCC4)c3n2C[C@H]2CC[C@H](C)CC2)c1 (stereo partly drawn) [Example 12.6, 1-(6-{[(1R)-1-cyclobutylethyl]amino}-7-[(trans-4-methylcyclohexyl)methyl]-8-[4-(propan-2-yl)pyridin-2-yl]-7H-purin-2-yl)ethanol] here?
The IC50 was 420 nM.

With CC(C)c1ccnc(-c2nc3nc(C(C)(C)O)nc(N[C@H](C)C4CCC4)c3n2C[C@H]2CC[C@H](C)CC2)c1 [Example 12.7, 2-(6-{[(1R)-1-cyclobutylethyl]amino}-7-[(trans-4-methylcyclohexyl)methyl]-8-[4-(propan-2-yl)pyridin-2-yl]-7H-purin-2-yl)propan-2-ol] as the compound, how does the IC50 read?
Its IC50 is 731 nM.

Which IC50 does the source give for CC(C)c1ccnc(-c2nc3nc(-c4nnn[nH]4)nc(N[C@H](C)C4CCC4)c3n2C[C@H]2CC[C@H](C)CC2)c1 [Example 12.8, N-[(1R)-1-cyclobutylethyl]-7-[(trans-4-methylcyclohexyl)methyl]-8-[4-(propan-2-yl)pyridin-2-yl]-2-(1H-tetrazol-5-yl)-7H-purin-6-amine] here?
Its IC50 is 1.91 nM.

How did the IC50 turn out when CC(C)c1ccnc(-c2nc3nc(CNS(C)(=O)=O)nc(N[C@H](C)C4CCC4)c3n2C[C@H]2CC[C@H](C)CC2)c1 [Example 12.9, N-[(6-{[(1R)-1-cyclobutylethyl]amino}-7-[(trans-4-methylcyclohexyl)methyl]-8-[4-(propan-2-yl)pyridin-2-yl]-7H-purin-2-yl)methyl]methanesulfonamide] was run?
Its IC50 is 374 nM.

C[C@@H](Nc1nc(-c2nnn(C)n2)nc2nc(N3CCOC[C@H]3c3ccccc3)n(C[C@H]3CC[C@H](C)CC3)c12)C1CCC1 [Example 12.11, N-[(1R)-1-cyclobutylethyl]-7-[(trans-4-methylcyclohexyl)methyl]-2-(2-methyl-2H-tetrazol-5-yl)-8-[(3R)-3-phenylmorpholin-4-yl]-7H-purin-6-amine] was tested. Which IC50 did it give?
The IC50 was 32.5 nM.

With C[C@@H](Nc1nc(-c2nnnn2C)nc2nc(N3CCOC[C@H]3c3ccccc3)n(C[C@H]3CC[C@H](C)CC3)c12)C1CCC1 [Example 12.12, N-[(1R)-1-cyclobutylethyl]-7-[(trans-4-methylcyclohexyl)methyl]-2-(1-methyl-1H-tetrazol-5-yl)-8-[(3R)-3-phenylmorpholin-4-yl]-7H-purin-6-amine] as the compound, how does the IC50 read?
Its IC50 is 27.3 nM.

For COC(=O)c1nc(N[C@H](C)C2CCC2)c2c(n1)nc(N1CCOC[C@H]1c1ccccc1)n2C[C@H]1CC[C@H](C)CC1 [Example 12.13, Methyl-6-{[(1R)-1-cyclobutylethyl]amino}-7-[(trans-4-methylcyclohexyl)methyl]-8-[(3R)-3-phenylmorpholin-4-yl]-7H-purine-2-carboxylate], which IC50 is on record?
Its IC50 is 49.4 nM.

With C[C@@H](Nc1nc(C(C)(C)O)nc2nc(N3CCOC[C@H]3c3ccccc3)n(C[C@H]3CC[C@H](C)CC3)c12)C1CCC1 [Example 12.14, 2-(6-{[(1R)-1-cyclobutylethyl]amino}-7-[(trans-4-methylcyclohexyl)methyl]-8-[(3R)-3-phenylmorpholin-4-yl]-7H-purine-2-yl)propan-2-ol] as the compound, how does the IC50 read?
The IC50 was 107 nM.

For C[C@@H](Nc1nc(-c2n[nH]c(=O)n2C)nc2nc(N3CCOC[C@H]3c3ccccc3)n(C[C@H]3CC[C@H](C)CC3)c12)C1CCC1 [Example 12.15, 5-(6-{[(1R)-1-cyclobutylethyl]amino}-7-[(trans-4-methylcyclohexyl)methyl]-8-[(3R)-3-phenylmorpholin-4-yl]-7H-purin-2-yl)-4-methyl-2,4-dihydro-3H-1,2,4-triazol-3-one], which IC50 is on record?
Its IC50 is 14.5 nM.

With C[C@@H](Nc1nc(-c2nnc[nH]2)nc2nc(N3CCOC[C@H]3c3ccccc3)n(C[C@H]3CC[C@H](C)CC3)c12)C1CCC1 [Example 12.16, N-[(1R)-1-cyclobutylethyl]-7-[(trans-4-methylcyclohexyl)methyl]-8-[(3R)-3-phenylmorpholin-4-yl]-2-(4H-1,2,4-triazol-3-yl)-7H-purin-6-amine] as the compound, how does the IC50 read?
Its IC50 is 10.8 nM.

With CCNC(=O)c1nc(N[C@H](C)C2CCC2)c2c(n1)nc(N1CCOC[C@H]1c1ccccc1)n2C[C@H]1CC[C@H](C)CC1 [Example 12.17, 6-{[(1R)-1-cyclobutylethyl]amino}-N-ethyl-7-[(trans-4-methylcyclohexyl)methyl]-8-[(3R)-3-phenylmorpholin-4-yl]-7H-purine-2-carboxamide] as the compound, how does the IC50 read?
The IC50 was 1.63 nM.

For C[C@@H](Nc1nc(C(=O)NS(C)(=O)=O)nc2nc(N3CCOC[C@H]3c3ccccc3)n(C[C@H]3CC[C@H](C)CC3)c12)C1CCC1 [Example 12.18, 6-{[(1R)-1-cyclobutylethyl]amino}-7-[(trans-4-methylcyclohexyl)methyl]-N-(methylsulfonyl)-8-[(3R)-3-phenylmorpholin-4-yl]-7H-purine-2-carboxamide], which IC50 is on record?
Its IC50 is 0.585 nM.

For C[C@@H](Nc1nc(-c2nc(=O)n(C)[nH]2)nc2nc(N3CCOC[C@H]3c3ccccc3)n(C[C@H]3CC[C@H](C)CC3)c12)C1CCC1 [Example 12.19, 5-(6-{[(1R)-1-cyclobutylethyl]amino}-7-[(trans-4-methylcyclohexyl)methyl]-8-[(3R)-3-phenylmorpholin-4-yl]-7H-purine-2-yl)-2-methyl-2,4-dihydro-3H-1,2,4-triazol-3-one], which IC50 is on record?
Its IC50 is 1.61 nM.

With C[C@@H](Nc1nc(C(O)CO)nc2nc(N3CCOC[C@H]3c3ccccc3)n(C[C@H]3CC[C@H](C)CC3)c12)C1CCC1 (stereo partly drawn) [Example 12.20, 1-(6-(((R)-1-cyclobutylethyl)amino)-7-((trans-4-methylcyclohexyl)methyl)-8-((R)-3-phenylmorpholino)-7H-purin-2-yl)ethane-1,2-diol] as the compound, how does the IC50 read?
Its IC50 is 49.4 nM.

How did the IC50 turn out when CC(=O)c1nc(N[C@H](C)C2CCC2)c2c(n1)nc(N1CCOC[C@H]1c1ccccc1)n2C[C@H]1CC[C@H](C)CC1 [Example 12.21, 1-(6-{[(1R)-1-cyclobutylethyl]amino}-7-[(trans-4-methylcyclohexyl)methyl]-8-[(3R)-3-phenylmorpholin-4-yl]-7H-purin-2-yl)ethanone] was run?
Its IC50 is 53.3 nM.

Which IC50 does the source give for C[C@@H](Nc1nc(CO)nc2nc(N3CCOC[C@H]3c3ccccc3)n(C[C@H]3CC[C@H](C)CC3)c12)C1CCC1 [Example 12.22, (6-{[(1R)-1-cyclobutylethyl]amino}-7-[(trans-4-methylcyclohexyl)methyl]-8-[(3R)-3-phenylmorpholin-4-yl]-7H-purin-2-yl)methanol] here?
The IC50 was 78.6 nM.

same assay, conditions: Table 11; read-out: FRET IC50

For C[C@@H]1OCCN(c2nc3nc(-c4n[nH]c(=O)o4)nc(N[C@H](C)C4CCC4)c3n2C[C@H]2CC[C@H](C)CC2)[C@@H]1c1ccccc1 [Example 11.164, 5-(6-{[(1R)-1-cyclobutylethyl]amino}-7-[(trans-4-methylcyclohexyl)methyl]-8-[(2S,3R)-2-methyl-3-phenylmorpholin-4-yl]-7H-purin-2-yl)-1,3,4-oxadiazol-2(3H)-one], which IC50 is on record?
Its IC50 is 31 nM.

C[C@@H](Nc1nc(-c2noc(=O)[nH]2)nc2nc(N3CCO[C@H](C)[C@H]3c3ccccc3)n(C[C@H]3CC[C@H](C)CC3)c12)C1CCC1 [Example 11.165, 3-(6-{[(1R)-1-cyclobutylethyl]amino}-7-[(trans-4-methylcyclohexyl)methyl]-8-[(2R,3R)-2-methyl-3-phenylmorpholin-4-yl]-7H-purin-2-yl)-1,2,4-oxadiazol-5(4H)-one] was tested. Which IC50 did it give?
The IC50 was 0.767 nM.

With C[C@@H](Nc1nc(-c2n[nH]c(=O)o2)nc2nc(N3CCO[C@H](C)[C@H]3c3ccccc3)n(C[C@H]3CC[C@H](C)CC3)c12)C1CCC1 [Example 11.166, 5-(6-{[(1R)-1-cyclobutylethyl]amino}-7-[(trans-4-methylcyclohexyl)methyl]-8-[(2R,3R)-2-methyl-3-phenylmorpholin-4-yl]-7H-purin-2-yl)-1,3,4-oxadiazol-2(3H)-one] as the compound, how does the IC50 read?
Its IC50 is 0.79 nM.

same assay, conditions: read-out: % inh. at 1000 nM; at 1000 nM compound

For CC(C)c1ccnc(-c2nc3nc(CN)nc(N[C@H](C)C4CCC4)c3n2C[C@H]2CC[C@H](C)CC2)c1 [Example 12.4, 2-(aminomethyl)-N-[(1R)-1-cyclobutylethyl]-7-[(trans-4-methylcyclohexyl)methyl]-8-[4-(propan-2-yl)pyridin-2-yl]-7H-purine-6-amine], which inhibition at 1 µM is on record?
The inhibition at 1 µM was 39%.

Which inhibition at 1 µM does the source give for CC(C)c1ccnc(-c2nc3nc(CNC(=O)C(F)(F)F)nc(N[C@H](C)C4CCC4)c3n2C[C@H]2CC[C@H](C)CC2)c1 [Example 12.10, N-[(6-{[(1R)-1-cyclobutylethyl]amino}-7-[(trans-4-methylcyclohexyl)methyl]-8-[4-(propan-2-yl)pyridin-2-yl]-7H-purin-2-yl)methyl]-2,2,2-trifluoroacetamide] here?
The inhibition at 1 µM was 30%.

Reference: EP2951180B1, “2,6,7,8 SUBSTITUTED PURINES AS HDM2 INHIBITORS” (Merck Sharp & Dohme Corp., priority 2013, dated 2014)
